Measured values as given in the supplement of paper PMC10307832.

Legend:
Test in all cases: relative viability (nuclei count vs DMSO), 5 days (fraction); higher = more cells survive
[1] = compound: CC(C)N(CCCNC(=O)Nc1ccc(C(C)(C)C)cc1)C[C@H]1O[C@@H](n2ccc3c(N)ncnc32)[C@H](O)[C@@H]1O + CS(=O)(=O)CCNCc1ccc(-c2ccc3ncnc(Nc4ccc(OCc5cccc(F)c5)c(Cl)c4)c3c2)o1 [Lapatinib] (partner 2 µM)
In short: (§1)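 Lung cancer cell lines in 1536-well plates were dosed by pin tool the day after seeding, either with one drug alone or with a fixed anchor-drug dose plus five library-drug doses (not always all listed) in √10 steps. After 5 days, cells were fixed and their nuclei stained in one step (final 0.05% Triton X-100, 1% formaldehyde, 1 ug/ml Hoechst), then counted on 4× images. Relative viability is the nuclei count in treated wells divided by that in vehicle wells. Values are medians of duplicate plates.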

[2] = compound: CC(C)N(CCCNC(=O)Nc1ccc(C(C)(C)C)cc1)C[C@H]1O[C@@H](n2ccc3c(N)ncnc32)[C@H](O)[C@@H]1O + Nc1nc2[nH]cc(CCc3ccc(C(=O)N[C@@H](CCC(=O)O)C(=O)O)cc3)c2c(=O)[nH]1 [Pemetrexed] (partner 0.2 µM)
In short: as §1

[3] = compound: CC(C)=CC[C@@H](O)C1=CC(=O)c2c(O)ccc(O)c2C1=O [Shikonin] + COc1cc2c(Oc3ccc(NC(=O)C4(C(=O)Nc5ccc(F)cc5)CC4)cc3F)ccnc2cc1OCCCN1CCOCC1 [Foretinib] (partner 0.25 µM)
In short: as §1

[4] = compound: CC(C)N(CCCNC(=O)Nc1ccc(C(C)(C)C)cc1)C[C@H]1O[C@@H](n2ccc3c(N)ncnc32)[C@H](O)[C@@H]1O + COc1cccc2cc(-c3nc([C@H]4CC[C@H](C(=O)O)CC4)n4ncnc(N)c34)[nH]c12 [OSI-027] (partner 0.5 µM)
In short: as §1

Cell Line	relative viability ([1]; first compound 0.08 µM)	relative viability ([1]; first compound 0.253 µM)	relative viability ([1]; first compound 0.8 µM)	relative viability ([1]; first compound 2.53 µM)	relative viability ([1]; first compound 8 µM)	relative viability ([2]; first compound 0.08 µM)	relative viability ([2]; first compound 0.253 µM)	relative viability ([2]; first compound 0.8 µM)	relative viability ([2]; first compound 2.53 µM)	relative viability ([2]; first compound 8 µM)	relative viability ([3]; first compound 0.01 µM)	relative viability ([3]; first compound 0.1 µM)	relative viability ([3]; first compound 0.3162 µM)	relative viability ([3]; first compound 1 µM)	relative viability ([4]; first compound 0.08 µM)	relative viability ([4]; first compound 0.253 µM)	relative viability ([4]; first compound 0.8 µM)	relative viability ([4]; first compound 2.53 µM)	relative viability ([4]; first compound 8 µM)
HCC-366	0.987	1.07	1.02	0.981	0.976	0.14	0.266	0.129	0.18	0.166	0.928	1.2	0.979	0.939	0.916	1.27	0.716	0.816	0.641
HCC-827	0.207	0.217		0.174	0.158	0.257	0.284	0.279	0.267	0.269	0.976	1.15	1.06	1.08	0.699	0.838		0.722	0.665
HOP-62	1.02	0.797	0.858	0.958	0.764	0.323	0.433	0.39	0.31	0.356	1.28	1.25	1.28	1.28	0.864	0.89	0.767	0.751	0.681
IA-LM	0.959	0.801	0.733	0.734	0.681						1.14	1.42	1.32	1.15					
LC-2-ad	0.937	0.906	0.925	0.966	0.835	0.282	0.271	0.263	0.282	0.276	0.869	0.989	1.04	1.01	0.845	0.823	0.892	0.816	0.855
LCLC-97TM1	0.906		1.41	0.517	1.11	0.179	0.175	0.18	0.163	0.183	0.949	1.02	0.912	0.962	0.555	0.642	0.716	0.557	0.679
LCLC-103H						0.417	0.454	0.452	0.413	0.51	0.875	0.847	0.953	0.942	0.447	0.58	0.495	0.451	0.467
LK-2	0.842	0.792	0.985	0.867	0.82		0.252	0.336	0.293	0.279	1.15	1.31	1.85	1.16	0.235	0.277	0.215	0.236	0.213
LOU-NH91	0.643	0.731		0.83	0.773	0.359	0.373		0.439	0.427	0.955	0.934	1.04	0.9	0.734	0.714	0.666	0.689	0.728
LU99A	0.923	0.679	1.16	1.16	1.04	0.178	0.206	0.176	0.204	0.167	0.854	0.815	0.797	0.744	0.317	0.327	0.329	0.377	0.254
LXF-289	0.867	0.956	0.863	0.943	0.821	0.876	1	0.96	1.02	0.833	0.987	1.02	0.998	0.972	0.791	0.797	0.852	0.828	0.742
NCI-H23	1		1.22	1.21	0.955	0.732		0.693	0.709	0.627	1.09	1.07	1.03	0.983	0.594	0.596	0.574	0.681	0.645
NCI-H441						0.271	0.242		0.263	0.253	0.941	1.17	0.849	1.04	0.589	0.587		0.735	0.661
NCI-H522						0.991	0.944	0.904	1.01	1.04					0.58	0.895	0.848	0.643	0.809
NCI-H727	0.922	0.821	0.804	0.973	0.686						0.864	0.837	0.905	0.883	0.635	0.597	0.521	0.495	0.666
NCI-H1299	0.984	0.948	0.914	0.919	0.891						1.08	1.15	1.09	1.09					
NCI-H1623											0.874	0.866	1.06	0.917	0.446	0.469	0.529	0.422	0.437
NCI-H1648						0.741	0.81	0.472	0.6	0.942					0.277	0.258	0.247	0.247	0.293
NCI-H1703	0.956	1.06	0.823	1.61	0.892						0.361	0.401	0.319	0.329					
NCI-H1792	0.878	0.851	0.839	0.831	0.902	0.769		0.697	0.882	0.747					0.693	0.702	0.716	0.586	0.72
NCI-H2342						0.807	0.722	0.729	0.718	0.801	1	1.12	1.03	1.03	0.736	0.643	0.611	0.61	0.607
SW 900						0.472	0.469		0.475	0.441	1.04	0.987	0.915	0.801	0.482	0.569		0.691	0.512
